The term solubility denotes the dissolved amount per volume that the medium holds.

One data set has as its system cancer cells. To be noted: cited from earlier work.
Data set [1] in a line: Purity and stability under denaturing conditions (HPLC, X-ray diffractogram, DSC). Format: physicochemical. As for the experimental part: The compound of formula (II) according to the invention has excellent stability over time even under denaturing conditions: at 25° C./60% relative humidity, at 25° C./90% relative humidity, at 30° C./65% relative humidity, at 40° C./75% relative humidity, or at 50° C., the compound of formula (II) is unchanged after 6 months.
EXAMPLE 2: PURITY AND STABILITY OF 3[(3-{[4-(4-MORPHOLINYLMETHYL)-1H-PYRROL-2-YL]METHYLENE}-2-OXO-2,3-DIHYDRO-1H-INDOL-5-YL)METHYL]-1,3-THIAZOLIDINE-2,4-DIONE METHANESULPHONATE, Z ISOMER, UNDER DENATURING CONDITIONS

Data set [2] is described as follows: Solubility in water, 24 hours stirring at ambient temperature, HPLC analysis. It counts as physicochemical. As to conditions: for solubility at 24 h: thermodynamic from solid. As for the experimental part:
A solution containing 140 mg of the compound obtained in Example 1 in 7 ml of water is stirred for 24 hours at ambient temperature. After filtration using an Acrodisc GJHP 0.45[…] μm, the solution is analysed by HPLC.

The nature of data set [3]: Constant surface area (intrinsic) dissolution kinetics at pH 2. It counts as physicochemical. As to conditions: for dissolution kinetics: pH 2 (0.01N HCl), ambient temperature, pellets of 0.075 cm^2, 100 rpm. The procedure:
The constant surface area dissolution kinetics (or intrinsic dissolution kinetics) of the product of Example 1 were determined at ambient temperature at pH 2 (10 mL of 0.01N HCl) using a μDiss dissolution apparatus and pellets of 0.075 cm^2, prepared by compression at 90 bars, for 2 minutes at a stirring speed of 100 rpm.
The product of Example 1 dissolves with kinetics of 23 μg·s^−1·cm^−2+/−11%. By way of comparison, the dissolution kinetics of the corresponding hydrochloride are 1.6 μg·s^−1·cm^−2. The methanesulphonate therefore dissolves about 14 times faster than the corresponding hydrochloride.

Setting [4] is: After 6 months, 25° C./60% relative humidity.
Where [5] appears, read: After 6 months, 25° C./90% relative humidity.
Setting [6] is: After 6 months, 30° C./65% relative humidity.
[7] abbreviates: After 6 months, 40° C./75% relative humidity.

Where two headings read alike, the source gives them in different places.

With `O=C1Nc2ccc(CN3C(=O)CSC3=O)cc2C1=Cc1cc(CN2CCOCC2)c[nH]1` [3-[(3-{[4-(4-morpholinylmethyl)-1H-pyrrol-2-yl]methylene}-2-oxo-2,3-dihydro-1H-indol-5-yl)methyl]-1,3-thiazolidine-2,4-dione], the “ability to inhibit the migration of cancer cells” value in the data set on cancer cells is “has the ability to inhibit the migration of cancer cells”.

For the molecule `O=C1Nc2ccc(CN3C(=O)CSC3=O)cc2C1=Cc1cc(CN2CCOCC2)c[nH]1` [Example 1, 3-[(3-{[4-(4-MORPHOLINYLMETHYL)-1H-PYRROL-2-YL]METHYLENE}-2-OXO-2,3-DIHYDRO-1H-INDOL-5-YL)METHYL]-1,3-THIAZOLIDINE-2,4-DIONE METHANESULPHONATE, Z ISOMER], the “DSC (thermogram)” value was “unchanged” in data set [1] (setting [4]); “unchanged” in data set [1] (setting [5]); “unchanged” in data set [1] (setting [6]); “unchanged” in data set [1] (setting [7]); “unchanged” in data set [1] (After 6 months, 50° C.). The “HPLC (% Example 1)” value was 99.8% in data set [1] (setting [4]); 99.8% in data set [1] (setting [5]); 99.8% in data set [1] (setting [6]); 99.8% in data set [1] (setting [7]); 99.8% in data set [1] (After 6 months, 50° C.); 99.8% in data set [1] (t = 0). Further, the “XR (diffractogram)” value in data set [1] (setting [4]) is given as “unchanged”; in data set [1] (setting [5]) it was “unchanged”; in data set [1] (setting [6]), “unchanged”; in data set [1] (setting [7]), “unchanged”; in data set [1] (After 6 months, 50° C.), “unchanged”. Further, the solubility at 24 h in data set [2] (as the salt, read-out: solubility) was found to be 14.7 mg/mL; in data set [2] (base equivalent, read-out: solubility in terms of the base equivalent) it was 12.1 mg/mL. The molecule further gave a dissolution kinetics in data set [3] of 23 μg·s^−1·cm^−2. Also, the “dissolution rate relative to the corresponding hydrochloride” value in data set [3] (pH 2, ambient temperature) is reported as “about 14 times faster”.

For `CS(=O)(=O)O.O=C1Nc2ccc(CN3C(=O)CSC3=O)cc2C1=Cc1cc(CN2CCOCC2)c[nH]1` [compound of formula (II), 3-[(3-{[4-(4-morpholinylmethyl)-1H-pyrrol-2-yl]methylene}-2-oxo-2,3-dihydro-1H-indol-5-yl)methyl]-1,3-thiazolidine-2,4-dione methanesulphonate], in data set [1] (after 6 months at 25° C./60% RH, 25° C./90% RH, 30° C./65% RH, 40° C./75% RH or 50° C.), the “stability over time under denaturing conditions” value is given as “unchanged”.

In the case of `Cl.O=C1Nc2ccc(CN3C(=O)CSC3=O)cc2/C1=C/c1cc(CN2CCOCC2)c[nH]1` (single isomer, unassigned) [hydrochloride of 3-[(3-([4-{(4-morpholinylmethyl)-1H-pyrrol-2-yl]methylene}-2-oxo-2,3-dihydro-1H-indol-5-yl)methyl]-1,3-thiazolidine-2,4-dione, Z isomer, reference compound], the solubility in data set [2] (as the salt) is 4.3 mg/mL. Moreover, the “solubility in terms of the base equivalent” value in data set [2] (base equivalent) stood at 4 mg/mL. The molecule also had a dissolution kinetics in data set [3] of 1.6 μg·s^−1·cm^−2.

Source of the values: patent publication US10245270B2, “Salt of 3-[(3-{[4-(4-morpholinylmethyl)-1H-pyrrol-2-yl]methylene}-2-oxo-2,3-dihydro-1H-indol-5-yl)methyl]-1,3-thiazolidine-2,4-dione, its preparation, and formulations containing it” (LES LABORATOIRES SERVIER, priority 2013, dated 2019).
